This is an account of results in US20250127778A1, “CANCER IMMUNOTHERAPY COMPOSITION CONTAINING INTERACTION INHIBITOR OF STING AND TRIM29 AS ACTIVE INGREDIENT” (SPARK BIOPHARMA, INC, priority 2021, published 2025).

SMILES strings stand for the structures.

Assay [1] relates to primary tumor and secondary tumor. Kind of assay: Primary and secondary tumor model for anticancer immune system construction. The format is in vivo, mouse. To be noted: FIG. 30. An excerpt: It was verified whether, under the treatment of cGAMP and the compound of Formula 1 in combination, in addition to the results of increasing the antigen presentation efficacy that were confirmed in FIGS. 18 to 21, the anticancer immune system was constructed throughout the organism also in the animal model, so that activated cytotoxic T cells were able to remove cancer cells in other locations to which drugs are not injected.

Assay [2] relates to TRIM29-mediated Lys48 polymerized multi-ubiquitination of STING. Kind of assay: ELISA detection of STING Lys48 polymerized multi-ubiquitination in HEK293T cells. Format: cell-based, human. Particulars: with MG132, three hours, FIG. 8. On the procedure:
It was confirmed whether the oxopiperazine derivatives of Formulas 1 to 6 increased the intracellular amount by preventing the degradation of STING through TRIM29-mediated Lys48 polymerized multi-ubiquitination (K48 linkage-specific polyubiquitination).
Specifically, HEK293T cells were seeded in a transparent 6-well plate and cultured for one day. […] At this time, only the effect of the compound was quantitatively detected in a manner of using an analysis value of the sample that was not treated with MG132, a proteasome inhibitor that prevents the removal of ubiquitinated proteins, as a control group and subtracting the analysis value from an analysis value of the sample that was treated with MG132. […] The protein concentration of the supernatant was measured by using Bradford assay reagent. […] To confirm the quantitative concentration, a 5× SDS-PAGE loading buffer (Biosesang) was added at the ratio of the manufacturer to a portion of the sample, and then the resultant was treated at 95° C. for five minutes and analyzed by using the western blotting method described above. […]

[3] abbreviates: combination with cGAMP compared with single administration of cGAMP.

Take `COc1ccc(CC2=CN(c3ccc(C(=O)NC[C@H]4CCCO4)cc3[N+](=O)[O-])[C@H](C(C)C)C(=O)N2Cc2ccc(O)cc2)cc1` [Formula 1, 4-((R)-4-(4-hydroxybenzyl)-2-isopropyl-5-(4-methoxybenzyl)-3-oxo-3,4-dihydropyrazin-1 (2H)-yl)-3-nitro-N-(((R)-tetrahydrofuran-2-yl)methyl)benzamide]: in assay [1] (setting [3]), the “final tumor mass of primary tumor” value is reported as “reduced” and the primary tumor growth entry was “inhibited”. For the same molecule, the “tumor death in secondary carcinomas” value in assay [1] (secondary tumor not directly injected) is recorded as “tumor death also effectively occurred”. The “TRIM29-mediated lysine 48 polymerized multi-ubiquitination of STING” value in assay [2] was “inhibited”.
